Experimental data as given in patent US9328106B2, “Cyclic ether pyrazol-4-yl-heterocyclyl-carboxamide compounds and methods of use” (Genentech, Inc., priority 2012, dated 2016).
Read-outs that look alike come from different tables or passages of the source. Blank lines part the entries; values can stand above or below the compound they belong to.

How the values were obtained:
BaF3 PIM1 cells = test: In vitro cell proliferation, BaF3 transfected with PIM1; type: cell-based, murine;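 also: murine IL-3-dependent pro-B BaF3 cells transfected with PIM1, compound exposure overnight at 37 °C under 5% CO2, viability read as luminescence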
Protocol: BaF3 parental line was obtained from the DSMZ repository. […] Media for BaF3 parental line contained RPMI, 10% FBS, 2 mM L-Glutamine, 2 ng/mL mIL-3. Media for BaF3 PIM1 & 2 lines contained RPMI, 10% FBS, 2 mM L-Glutamine, 250 μg/mL. Media for MM1.S (multiple myeloma cells) line contained RPMI, 10% FBS, 2 mM L-Glutamine.
BaF3, a murine interleukin-3 dependent pro-B cell line, parental cells, BaF3 PIM1 cells, BaF3 PIM2 cells, and MM1.S (multiple myeloma) cells were seeded at 2 k/well, 5 k/well, 5 k/well, and 10 k/well respectively, in a 384-well plate, at 45 μL/well. Test compound was added at 5 μL/well. BaF3 cells (parental and transfected) were incubated overnight, while MM1.S cells were incubated for 72 hours at 37° C., 5% CO2. CELL TITER GLO® Reagent (Promega) was added at 50 μL/well, the plates were incubated for 30 minutes, and their luminescence read on an HT Analyst. IC50/EC50 values for the test compound were calculated.

BaF3 parental cells = test: In vitro cell proliferation, BaF3 parental line + IL3; type: cell-based, murine; settings: Mus musculus;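 also: BaF3 parental cells are murine IL-3 dependent pro-B cells grown with 2 ng/mL mIL-3, 384-well format, viability read by luminescence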
[1] = system: MM1.S (multiple myeloma) cells; test: In vitro cell proliferation, MM1.S multiple myeloma cells; type: cell-based; settings: read-out: Prolif MM1S ATP (EC50);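 also: cells cultured in RPMI with 10% FBS and 2 mM L-Glutamine, seeded in 384-well plates, exposed to compound, cell viability measured by luminescence after CellTiter-Glo addition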
PIM1 = PIM1 (Homo sapiens (Human), UniProt P11309); test: biochemical; type: biochemical; settings: 20 pM PIM1, 1 μM FAM-peptide, 10 μM ATP, 90 minutes at room temperature; read-out: PIM1 LC3K (KI)
Protocol: Reaction Buffer contained 10 mM HEPES, pH 7.2, 10 mM MgCl2, 0.01% Tween 20, 2 mM DTT. Termination Buffer contained 190 mM HEPES, pH 7.2, 0.015% Brij-35, 0.2% Coating Reagent 3 (Caliper Life Sciences, Hopkinton, Mass.), 20 mM EDTA. Separation Buffer contained 100 mM HEPES, pH 7.2, 0.015% Brij-35, 0.1% Coating Reagent 3, 1:200 Coating Reagent 8 (Caliper Life Sciences, Hopkinton, Mass.), 10 mM EDTA and 5% DMSO.
PIM reactions were carried out in a final volume of 10 μL per well in a 384-well plate. […] After 90 minutes of incubation at room temperature, the phosphorylation reaction was stopped by the addition of 10 μL Termination Buffer. The product and substrate in each independent reaction were separated on a 12-sipper microfluidic chip (Caliper Life Sciences, Hopkinton, Mass.) run on a Caliper LC3000® (Caliper Life Sciences, Hopkinton, Mass.). The separation of product and substrate was optimized by choosing voltages and pressure using Caliper's Optimizer software (Hopkinton, Mass.). The separation conditions used a downstream voltage of −500V, an upstream voltage of −2150V, and a screening pressure of −1.2 psi. […] Substrate conversion was calculated from the electropherogram using HTS Well Analyzer software (Caliper Life Sciences, Hopkinton, Mass.). Ki values for the test compound were calculated.

[2] = Mus musculus, BaF3, read-out: Prolif BaF3 PIM1 (IC50), BaF3 PIM1 cells, incubated overnight, CELL TITER GLO
[3] = BaF3, BaF3 parental, mIL-3, incubated overnight, CELL TITER GLO, read-out: Prolif BaF3 IL3 (IC50)
[4] = Homo sapiens, MM1.S, 72 h, MM1.S cells, 72 hours, CELL TITER GLO

PIM1, sequence (P11309 whole entry): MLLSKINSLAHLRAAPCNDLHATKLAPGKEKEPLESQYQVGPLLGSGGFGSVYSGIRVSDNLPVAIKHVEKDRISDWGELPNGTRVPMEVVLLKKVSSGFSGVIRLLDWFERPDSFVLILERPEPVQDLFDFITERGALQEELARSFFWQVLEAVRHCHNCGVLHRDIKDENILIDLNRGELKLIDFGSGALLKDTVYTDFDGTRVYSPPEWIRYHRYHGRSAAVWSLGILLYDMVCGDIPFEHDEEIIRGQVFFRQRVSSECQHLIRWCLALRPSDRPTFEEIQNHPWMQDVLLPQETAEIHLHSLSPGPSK

SMILES: Cn1ncc(NC(=O)c2csc(-c3ccc(F)cc3F)n2)c1[C@@H]1CC[C@@H](N)[C@H](F)CO1 [Example 325, N-(5-((2S,5R,6S)-5-amino-6-fluorooxepan-2-yl)-1-methyl-1H-pyrazol-4-yl)-2-(2,4-difluorophenyl)thiazole-4-carboxamide]
IC50 (BaF3 PIM1 cells; [2]): 142 nM
IC50 (BaF3 parental cells; [3]): 6300 nM
EC50 [1, 4]: 735 nM
Ki (PIM1): 0.05 nM

SMILES: C[C@H](O)c1ccc(-c2nc(C(=O)Nc3cnn(C)c3[C@@H]3CC[C@@H](N)[C@H](F)CO3)cs2)c(F)c1F (single isomer, unassigned) [Example 365]
IC50 (BaF3 PIM1 cells; [2]): 408 nM
IC50 (BaF3 parental cells; [3]): 15900 nM
EC50 [1, 4]: 348 nM
Ki (PIM1): 0.069 nM

SMILES: CO[C@@H]1COC(c2c(NC(=O)c3nc(-c4c(F)cccc4F)sc3N)cnn2C)CC[C@H]1N (stereo partly drawn) [Example 126, 5-amino-N-(5-((5R,6S)-5-amino-6-methoxyoxepan-2-yl)-1-methyl-1H-pyrazol-4-yl)-2-(2,6-difluorophenyl)thiazole-4-carboxamide]
IC50 (BaF3 PIM1 cells; [2]): 25.2 nM
IC50 (BaF3 parental cells; BaF3, read-out: Prolif BaF3 IL3 (IC50)): 25000 nM
EC50 ([1]; Homo sapiens, MM1.S, 72 h): 21.7 nM
Ki (PIM1): 0.026 nM

SMILES: Cn1ncc(NC(=O)c2nc(-c3c(F)cccc3F)sc2N)c1[C@H]1CC[C@@H](N)C(F)CO1 (stereo in doubt) [Example 148, 5-Amino-N-[5-[5-amino-6-fluoro-oxepan-2-yl]-1-methyl-pyrazol-4-yl]-2-(2,6-difluorophenyl)thiazole-4-carboxamide]
IC50 (BaF3 PIM1 cells; [2]): 1600 nM
IC50 (BaF3 parental cells; [3]): 25000 nM
EC50 [1, 4]: 7700 nM
Ki (PIM1): 0.079 nM

SMILES: Cn1ncc(NC(=O)c2nc(-c3cccc(F)c3F)sc2N)c1[C@@H]1CC[C@@H](N)[C@H](F)CO1 [Example 324, 5-amino-N-(5-((2S,5R,6S)-5-amino-6-fluorooxepan-2-yl)-1-methyl-1H-pyrazol-4-yl)-2-(2,3-difluorophenyl)thiazole-4-carboxamide]
IC50 (BaF3 PIM1 cells; [2]): 45.3 nM
IC50 (BaF3 parental cells; [3]): > 25000 nM
EC50 [1, 4]: 116 nM
Ki (PIM1): 0.019 nM

SMILES: Cn1ncc(NC(=O)c2csc(-c3c(F)cc(F)cc3F)n2)c1[C@@H]1CC[C@@H](N)[C@H](F)CO1 [Example 364, N-(5-((2S,5R,6S)-5-amino-6-fluorooxepan-2-yl)-1-methyl-1H-pyrazol-4-yl)-2-(2,4,6-trifluorophenyl)thiazole-4-carboxamide]
IC50 (BaF3 PIM1 cells; [2]): 208 nM
IC50 (BaF3 parental cells; [3]): 20200 nM
EC50 [1, 4]: 1100 nM
Ki (PIM1): 0.039 nM

SMILES: Cn1ncc(NC(=O)c2csc(-c3c(F)cccc3F)n2)c1[C@@H]1CC[C@@H](N)[C@H](F)CO1 [Example 321, N-(5-((2S,5R,6S)-5-amino-6-fluorooxepan-2-yl)-1-methyl-1H-pyrazol-4-yl)-2-(2,6-difluorophenyl)thiazole-4-carboxamide]
IC50 (BaF3 PIM1 cells; [2]): 50.6 nM
IC50 (BaF3 parental cells; [3]): 4400 nM
EC50 [1, 4]: 385 nM
Ki (PIM1): 0.0137 nM

SMILES: Cc1sc(-c2c(F)cccc2F)nc1C(=O)Nc1cnn(C)c1[C@@H]1CC[C@@H](N)[C@H](F)CO1 [Example 370, N-[5-[(2S,5R,6S)-5-amino-6-fluoro-oxepan-2-yl]-1-methyl-pyrazol-4-yl]-2-(2,6-difluorophenyl)-5-methyl-thiazole-4-carboxamide]
IC50 (BaF3 PIM1 cells; [2]): 675 nM
IC50 (BaF3 parental cells; [3]): 6400 nM
EC50 [1, 4]: 1800 nM
Ki (PIM1): 0.382 nM

SMILES: COc1ccc(F)c(-c2nc(C(=O)Nc3cnn(C)c3[C@@H]3CC[C@@H](N)[C@H](F)CO3)cs2)c1 [Example 356, N-(5-((2S,5R,6S)-5-amino-6-fluorooxepan-2-yl)-1-methyl-1H-pyrazol-4-yl)-2-(2-fluoro-5-methoxyphenyl)thiazole-4-carboxamide]
IC50 (BaF3 PIM1 cells; [2]): 108 nM
IC50 (BaF3 parental cells; [3]): 6500 nM
EC50 [1, 4]: 1400 nM
Ki (PIM1): 0.053 nM

SMILES: Cn1ncc(NC(=O)c2csc(-c3ccccn3)n2)c1[C@@H]1CC[C@@H](N)[C@H](F)CO1 [Example 326, N-(5-((2S,5R,6S)-5-amino-6-fluorooxepan-2-yl)-1-methyl-1H-pyrazol-4-yl)-2-(pyridin-2-yl)thiazole-4-carboxamide]
IC50 (BaF3 PIM1 cells; [2]): 132 nM
IC50 (BaF3 parental cells; [3]): 12400 nM
EC50 [1, 4]: 436 nM
Ki (PIM1): 0.031 nM

SMILES: CN(C)C(=O)c1cc(F)c(-c2nc(C(=O)Nc3cnn(C)c3[C@@H]3CC[C@@H](N)[C@H](F)CO3)cs2)c(F)c1 [Example 354, N-(5-((2S,5R,6S)-5-amino-6-fluorooxepan-2-yl)-1-methyl-1H-pyrazol-4-yl)-2-(4-(dimethylcarbamoyl)-2,6-difluorophenyl)thiazole-4-carboxamide]
IC50 (BaF3 PIM1 cells; [2]): 3400 nM
IC50 (BaF3 parental cells; [3]): 7300 nM
EC50 [1, 4]: 5100 nM
Ki (PIM1): 0.083 nM

Further compounds by falling Ki (PIM1), results first:

IC50 (BaF3 PIM1 cells; [2]): 15200 nM
EC50 [1, 4]: 9400 nM
Ki (PIM1): 1.85 nM
SMILES: Cn1ncc(NC(=O)c2csc(-c3c(F)ccc(S(C)(=O)=O)c3F)n2)c1[C@@H]1CC[C@@H](N)[C@H](F)CO1 [Example 360, N-[5-[(2S,5R,6S)-5-amino-6-fluoro-oxepan-2-yl]-1-methyl-pyrazol-4-yl]-2-(2,6-difluoro-3-methylsulfonyl-phenyl)thiazole-4-carboxamide]
IC50 (BaF3 parental cells; [3]): 16500 nM

IC50 (BaF3 PIM1 cells; [2]): 621 nM
EC50 [1, 4]: 520 nM
Ki (PIM1): 0.076 nM
SMILES: Cn1ncc(NC(=O)c2csc(-c3c(F)cccc3F)n2)c1[C@H]1CC[C@H](N)[C@H](O)CO1 [Example 351, N-(5-((2R,5S,6S)-5-amino-6-hydroxyoxepan-2-yl)-1-methyl-1H-pyrazol-4-yl)-2-(2,6-difluorophenyl)thiazole-4-carboxamide]
IC50 (BaF3 parental cells; [3]): 9900 nM

IC50 (BaF3 PIM1 cells; [2]): 113 nM
EC50 [1, 4]: 1500 nM
Ki (PIM1): 0.072 nM
SMILES: Cn1ncc(NC(=O)c2csc(-c3ccccc3F)n2)c1[C@@H]1CC[C@@H](N)[C@H](F)CO1 [Example 322, N-(5-((2S,5R,6S)-5-amino-6-fluorooxepan-2-yl)-1-methyl-1H-pyrazol-4-yl)-2-(2-fluorophenyl)thiazole-4-carboxamide]
IC50 (BaF3 parental cells; [3]): 6300 nM

IC50 (BaF3 PIM1 cells; [2]): 250 nM
EC50 [1, 4]: 452 nM
Ki (PIM1): 0.068 nM
SMILES: Cc1cccc(-c2nc(C(=O)Nc3cnn(C)c3[C@@H]3CC[C@@H](N)[C@H](F)CO3)cs2)c1F [Example 361, N-[5-[(2S,5R,6S)-5-amino-6-fluoro-oxepan-2-yl]-1-methyl-pyrazol-4-yl]-2-(2-fluoro-3-methyl-phenyl)thiazole-4-carboxamide]
IC50 (BaF3 parental cells; [3]): 2800 nM

IC50 (BaF3 PIM1 cells; [2]): 245 nM
EC50 [1, 4]: 5400 nM
Ki (PIM1): 0.061 nM
SMILES: CC(C)C(=O)c1cc(F)c(-c2nc(C(=O)Nc3cnn(C)c3[C@@H]3CC[C@@H](N)[C@H](F)CO3)cs2)c(F)c1 [Example 367, N-(5-((2S,5R,6S)-5-amino-6-fluorooxepan-2-yl)-1-methyl-1H-pyrazol-4-yl)-2-(2,6-difluoro-4-isobutyrylphenyl)thiazole-4-carboxamide]
IC50 (BaF3 parental cells; [3]): 24000 nM

IC50 (BaF3 PIM1 cells; [2]): 151 nM
EC50 [1, 4]: 4400 nM
Ki (PIM1): 0.057 nM
SMILES: Cn1ncc(NC(=O)c2csc(-c3c(F)cc([C@@H]4CCCO4)cc3F)n2)c1[C@@H]1CC[C@@H](N)[C@H](F)CO1 (single isomer, unassigned) [Example 371]
IC50 (BaF3 parental cells; [3]): > 25000 nM

IC50 (BaF3 PIM1 cells; [2]): 50.7 nM
EC50 [1, 4]: 336 nM
Ki (PIM1): 0.036 nM
SMILES: COc1cccc(-c2nc(C(=O)Nc3cnn(C)c3[C@@H]3CC[C@@H](N)[C@H](F)CO3)cs2)c1F [Example 362, N-(5-((2S,5R,6S)-5-amino-6-fluorooxepan-2-yl)-1-methyl-1H-pyrazol-4-yl)-2-(2-fluoro-3-methoxyphenyl)thiazole-4-carboxamide]
IC50 (BaF3 parental cells; [3]): 3100 nM

IC50 (BaF3 PIM1 cells; read-out: Prolif BaF3 PIM1 (IC50), BaF3 PIM1 cells, incubated overnight, CELL TITER GLO): 115 nM
EC50 ([1]; MM1.S cells, 72 hours, CELL TITER GLO): 9200 nM
Ki (PIM1): 0.034 nM
SMILES: Cn1ncc(NC(=O)c2nc(-c3c(F)cccc3F)sc2N)c1C12CCC(O)C(CC1)O2 (single isomer, unassigned) [Example 109, 5-amino-2-(2,6-difluorophenyl)-N-[5-(2-hydroxy-8-oxabicyclo[3.2.1]octan-5-yl)-1-methyl-pyrazol-4-yl]thiazole-4-carboxamide]
IC50 (BaF3 parental cells; [3]): 8300 nM

IC50 (BaF3 PIM1 cells; [2]): 294 nM
EC50 [1, 4]: 937 nM
Ki (PIM1): 0.034 nM
SMILES: Cn1ncc(NC(=O)c2csc(-c3c(F)ccc(C4CC4)c3F)n2)c1[C@@H]1CC[C@@H](N)[C@H](F)CO1 [Example 363, N-(5-((2S,5R,6S)-5-amino-6-fluorooxepan-2-yl)-1-methyl-1H-pyrazol-4-yl)-2-(3-cyclopropyl-2,6-difluorophenyl)thiazole-4-carboxamide]
IC50 (BaF3 parental cells; [3]): 4500 nM

IC50 (BaF3 PIM1 cells; [2]): 79.4 nM
EC50 [1, 4]: 640 nM
Ki (PIM1): 0.022 nM
SMILES: Cn1ncc(NC(=O)c2csc(-c3n[nH]c4ccccc34)n2)c1[C@@H]1CC[C@@H](N)[C@H](F)CO1 [Example 381, N-(5-((2S,5R,6S)-5-amino-6-fluorooxepan-2-yl)-1-methyl-1H-pyrazol-4-yl)-2-(1H-indazol-3-yl)thiazole-4-carboxamide]
IC50 (BaF3 parental cells; [3]): 5800 nM

IC50 (BaF3 PIM1 cells; [2]): 52.2 nM
EC50 [1, 4]: 1900 nM
Ki (PIM1): 0.014 nM
SMILES: COC1(c2cc(F)c(-c3nc(C(=O)Nc4cnn(C)c4[C@@H]4CC[C@@H](N)[C@H](F)CO4)cs3)c(F)c2)COC1 [Example 339, N-(5-((2S,5R,6S)-5-amino-6-fluorooxepan-2-yl)-1-methyl-1H-pyrazol-4-yl)-2-(2,6-difluoro-4-(3-methoxyoxetan-3-yl)phenyl)thiazole-4-carboxamide]
IC50 (BaF3 parental cells; [3]): > 25000 nM

IC50 (BaF3 PIM1 cells; [2]): 51.7 nM
EC50 [1, 4]: > 6200 nM
Ki (PIM1): 0.01 nM
SMILES: Cn1ncc(NC(=O)c2csc(-c3c(F)cc(C4(F)COC4)cc3F)n2)c1[C@@H]1CC[C@@H](N)[C@H](F)CO1 [Example 340, N-(5-((2S,5R,6S)-5-amino-6-fluorooxepan-2-yl)-1-methyl-1H-pyrazol-4-yl)-2-(2,6-difluoro-4-(3-fluorooxetan-3-yl)phenyl)thiazole-4-carboxamide]
IC50 (BaF3 parental cells; [3]): 20700 nM
